Drawing on PubChem BioAssay (NCI), this text covers TGI for 9 compounds.

Holding throughout (assay): inhibition of tumour cell growth, NCI panel, 48 h
The test system of experiment [1] is SN12C renal.
Experiment [2] deals with RPMI-8226 leukemia.
Experiment [3] relates to A549 NSCLC.
The test system of experiment [4] is SF-295 CNS.
For experiment [5], the system named is U251 CNS.
For experiment [6], the system named is CAKI-1 renal.
In experiment [7] the test system is HL-60(TB) leukemia.
Experiment [8] has as its system MOLT-4 leukemia.
Experiment [9] deals with SR leukemia.
Experiment [10] deals with UACC-257 melanoma.
The subject of experiment [11] is 786-0 renal.
The test system of experiment [12] is NCI-H23 lung.
The test system of experiment [13] is IGROV1 ovarian.
Experiment [14] deals with OVCAR-3 ovarian.
Experiment [15] deals with OVCAR-8 ovarian.
Experiment [16] concerns MDA-MB-231 breast.
For experiment [17], the system named is NCI-H522 lung.

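Dose response: 5 concentrations. Exposure: 48 h. Format: 96-well plates. Endpoint: linear interpolation; highest concentration if not reached. TGI is the concentration that stops growth completely.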 Bounds are passed on as bounds.

Regarding `Cc1ccc(O)c(C2=CC3=NNC(=O)C3C(c3cccc(Cl)c3)C2)c1` (configuration not stated), the TGI was more than 100 µM in [1]; 75.9 µM in [2]; more than 100 µM in experiment [3]; more than 100 µM in experiment [4]; more than 100 µM in experiment [5]; more than 100 µM in experiment [6]. Besides, the TGI in experiment [7], in [8], in [9], in experiment [10], in experiment [11] and in experiment [12] was more than 100 µM in each case. The TGI was more than 100 µM in experiment [13], 84.1 µM in [14], 77.3 µM in experiment [15] and more than 100 µM in experiment [16].
On to `Oc1ccc(/C=C/c2cccc(/C=C/c3ccc(O)c(O)c3)n2)cc1O`, for which the TGI is 27.5 µM in experiment [1]; 31.1 µM in experiment [2]; 22.2 µM in [3]; 65.1 µM in experiment [4]; more than 100 µM in experiment [5]; 90.5 µM in [6]. Moreover, the TGI in [7] came to 13.4 µM; in experiment [8] it was 17.8 µM; in [9], 14.5 µM; in experiment [10] it was 28.5 µM; in experiment [11], 24.7 µM; in [13], 19.6 µM. Moreover, the TGI is more than 100 µM in [14], 20.8 µM in experiment [15] and 76.7 µM in experiment [16].
`CC(=O)c1cccc(NC(=O)C(=O)c2c(O)c3ccccc3oc2=O)c1`: the TGI in experiment [1], in [2], in experiment [3], in experiment [4], in experiment [5] and in [6] was more than 100 µM each time. Besides, the TGI in [17], in experiment [8], in experiment [9], in experiment [10], in experiment [11] and in experiment [12] was more than 100 µM throughout. The TGI in experiment [13], in experiment [14], in [15] and in [16] was more than 100 µM throughout.
In the case of `O=C1C[C@@]23CCC4(CC2CCC[C@H]3O1)OCCO4` (some centres not stated), the TGI in experiment [1], in [2], in [3], in experiment [4], in experiment [5] and in experiment [7] was more than 100 µM throughout. The TGI in [17], in experiment [8], in experiment [9], in experiment [10], in experiment [11] and in experiment [12] was more than 100 µM throughout. The TGI in experiment [13], in [14], in [15] and in experiment [16] was more than 100 µM throughout.
Turning to `CO/N=C\c1ccc2c(c1)Sc1ccccc1O2`, the TGI in experiment [1], in [2], in [3], in [4], in [5] and in [6] was more than 100 µM throughout. For the same compound, the TGI in experiment [7], in experiment [8], in [9], in experiment [10], in experiment [11] and in [12] was more than 100 µM in each case. Further, the TGI in [13], in experiment [14], in [15] and in [16] was more than 100 µM each time.
Regarding `O=Cc1ccc(OC[C@H]2COC(=O)N2)cc1`, the TGI in experiment [1], in experiment [3], in experiment [4], in [5], in experiment [6] and in [7] was more than 100 µM each time. In addition, the TGI in experiment [17], in experiment [8], in [9], in experiment [10], in experiment [11] and in experiment [12] was more than 100 µM each time. Also, the TGI in experiment [13], in [14], in [15] and in experiment [16] was more than 100 µM each time.
For the compound `FC(F)(F)c1ccc2c(c1)nc1n2C(c2c(Cl)cccc2Cl)SC1` (configuration not stated), the TGI was 32.2 µM in experiment [1]; 38.6 µM in experiment [3]; 33.6 µM in experiment [4]; 38.3 µM in experiment [5]; 35 µM in experiment [6]; 67.5 µM in experiment [7]. Moreover, the TGI in experiment [17] was 51.9 µM; in experiment [8] it was more than 100 µM; in experiment [9], more than 100 µM; in [10], 42.9 µM; in experiment [11], 33.4 µM; in experiment [12] it was 60.1 µM. In addition, the TGI in [13] amounted to 47.7 µM; in experiment [14] it was 28.8 µM; in experiment [15] it was 74.7 µM; in [16] it was 35.7 µM.
Turning to `O=C(c1cccs1)c1nccc2c1cnc1ccccc12`, the TGI in experiment [1], in [2], in [3], in experiment [4], in experiment [5] and in experiment [6] was more than 100 µM throughout. Also, the TGI in experiment [7], in [8], in experiment [9], in [10], in [11] and in [12] was more than 100 µM in each case. Moreover, the TGI in [14], in experiment [15] and in experiment [16] was more than 100 µM throughout.
Take `CC(C)(C)C(=O)Oc1ccc(/C=C/C(=O)c2ccc(OC(=O)C(C)(C)C)cc2)cc1`: the TGI in experiment [1] is more than 100 µM; in experiment [3], more than 100 µM; in experiment [4], more than 100 µM; in experiment [5] it was more than 100 µM; in experiment [6], 96.7 µM; in experiment [7], 75.5 µM. Also, the TGI is 8.78 µM in experiment [17]; 53.2 µM in experiment [8]; 76.4 µM in [9]; more than 100 µM in experiment [10]; more than 100 µM in experiment [11]; more than 100 µM in [12]. For the same compound, the TGI was more than 100 µM in [13], 72 µM in experiment [14], more than 100 µM in experiment [15] and more than 100 µM in experiment [16].
